Experimental data published in patent US20090142411A1, “Composition and Device Comprising an Inorganic Component (Metal Compound) for Coagulation of Protein-Containing Fluids” (SMITH & NEPHEW, PLC, priority 2005, published 2009).

Assays:
gelatine = assay: coagulation of gelatine solution; conditions: 5 μl aliquot of 350 mg/ml solution, 100 μl gelatine solution 40 mg/ml in PBS, immediately
[1] = coagulation of heat-inactivated foetal calf serum
Method: (§1) The oxide powder was allowed to settle to the bottom of the vessel (0.5 ml capacity Eppendorf tube) and was left undisturbed for 2 hours. […] The vessel was left undisturbed for 24 h.

[2] = coagulation of whole human blood; conditions: 1-5 μl aliquots of 350 mg/ml solution, 100 μl whole human blood
Method: Examples 4-9 were repeated with 100 μl whole human blood in place of the bovine serum albumin solution.

[3] = coagulation of whole human saliva; conditions: 5 gi aliquot of 350 mg/ml solution in PBS pH 7.4, 100 μl whole human saliva, 30 minutes
Method: (§2) The vessel was left undisturbed for 30 minutes.

[4] = coagulation of chronic wound fluid
Method: as §1

bovine serum albumin = bovine serum albumin (Bos taurus, UniProt P02769); assay: coagulation of bovine serum albumin solution; conditions: 10 mg powder in 100 μl bovine serum albumin 40 mg/ml in PBS pH 7.4, undisturbed 2 hours
Method: The oxide powder was allowed to settle to the bottom of the vessel (0.5 ml capacity Eppendorf tube) and was left undisturbed for 2 hours.
as §2, §2, §2, §2, §2
The vessel was left undisturbed for 24 h.

bovine serum albumin, sequence (P02769 25-607): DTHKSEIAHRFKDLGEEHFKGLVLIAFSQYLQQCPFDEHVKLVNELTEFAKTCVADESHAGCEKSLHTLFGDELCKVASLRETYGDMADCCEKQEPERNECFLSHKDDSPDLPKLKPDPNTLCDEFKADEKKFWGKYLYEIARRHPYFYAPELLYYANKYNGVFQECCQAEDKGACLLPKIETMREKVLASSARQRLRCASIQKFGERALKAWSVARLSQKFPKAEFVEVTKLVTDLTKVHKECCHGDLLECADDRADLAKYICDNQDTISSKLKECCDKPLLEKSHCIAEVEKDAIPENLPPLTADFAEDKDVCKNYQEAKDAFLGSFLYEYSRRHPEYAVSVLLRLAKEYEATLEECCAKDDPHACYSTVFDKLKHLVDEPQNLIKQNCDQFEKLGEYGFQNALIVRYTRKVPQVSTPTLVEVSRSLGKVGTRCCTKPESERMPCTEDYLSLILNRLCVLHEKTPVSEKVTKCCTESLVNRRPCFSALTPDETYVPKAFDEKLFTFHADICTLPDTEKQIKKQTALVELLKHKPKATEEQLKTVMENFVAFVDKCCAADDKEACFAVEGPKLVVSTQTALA

Substance | coagulation / precipitate formation (gelatine) | coagulation, Examples 4-9 repeated ([1]; 1-5 μl aliquots of 350 mg/ml solution, 100 μl heat-inactivated foetal calf serum) | coagulation ([1]; 5 μl aliquot of 350 mg/ml solution, heat-inactivated foetal calf serum, 1.0 ml syringe, 24 h) | coagulation, Examples 4-9 repeated [2] | coagulation [3] | coagulation, Examples 4-9 repeated ([4]; 1-5 μl aliquots of 350 mg/ml solution, 100 μl chronic wound fluid) | coagulation ([4]; 5 μl aliquot of 350 mg/ml solution, chronic wound fluid, 1.0 ml syringe, 24 h) | coagulation (bovine serum albumin) | coagulation ([1]; 10 mg powder in 100 μl heat-inactivated foetal calf serum, undisturbed 2 hours) | coagulation ([4]; 10 mg powder in 100 μl chronic wound fluid, overnight) | coagulation ([4]; 10 mg powder in 100 μl chronic wound fluid, undisturbed 2 hours)
gold (III) chloride | a fibrous precipitate was formed | The results were the same | the fluid coagulated | The results were the same | a lightly coagulated, opaque mass of several millimetres thickness was formed | The results were the same | the fluid coagulated | – | – | – | –
gold (III) oxide [gold (III) oxide powder] | – | – | – | – | – | – | – | a coagulated, opaque mass of several millimetres thickness was formed | a coagulated, opaque mass of several millimetres thickness was formed | the entire fluid volume had coagulated | a coagulated, opaque mass of several millimetres thickness was formed
